Measured values taken from US11031562B2, “Metal complexes” (Merck Patent GmbH, priority 2015, dated 2021).

How the values were obtained:
Format in all cases: physicochemical
[1] = Oxidation and reduction potentials by CV (HOMO, LUMO); conditions: in eV (unit assumed); for HOMO: Ox. in DCM; for LUMO: Red. in THF
[2] = Photoluminescence in solution (PL-max., PL quantum efficiency); conditions: solvent toluene; room temperature, degassed solution
[3] = Photostability in anhydrous C6D6 solution under irradiation with light of about 455 nm, checked by 1H NMR; conditions: irradiation with light of wavelength about 455 nm
[4] = Thermal stability: thermal storage at 360° C. for 7 days, checked by 1H NMR

SMILES	HOMO [1]	LUMO [1]	PL-max. [2]	PLQE [2]	Photo. stab. [3]	Therm. stab. [4]
c1ccc(-c2cc(-c3ccccc3)cc(-c3cccc(-c4cc[c]5c(c4)-c4cccc[n+]4[Ir-3]546([c]5ccc(-c7cccc(-c8cc(-c9ccccc9)cc(-c9ccccc9)c8)c7)cc5-c5cccc[n+]54)[c]4ccc(-c5cccc(-c7cc(-c8ccccc8)cc(-c8ccccc8)c7)c5)cc4-c4cccc[n+]46)c3)c2)cc1 [Ir1, reference compound]	−5.09	−1.99	513	0.97	–	–
Cc1cc2[n+](cc1-c1ccccc1)[Ir-3]13([c]4ccccc4-c4cccc[n+]41)([c]1ccccc1-c1cccc[n+]13)[c]1ccccc1-2 [Ir2, reference compound]	−5.05	−1.71	516	0.97	decomposition	decomposition
O=C1Oc2cc3cc(c2)OC(=O)c2ccc4[c](c2)[Ir-3]25([c]6cc1ccc6-c1cccc[n+]12)([c]1cc(ccc1-c1cccc[n+]15)C(=O)O3)[n+]1ccccc1-4 [Ir(L200)]	−5.66	−2.64	552	0.94	no decomp.	no decomp.
CN1C(=O)c2ccc3[c](c2)[Ir-3]245([c]6cc(ccc6-c6cccc[n+]62)C(=O)N(C)c2cc1cc(c2)N(C)C(=O)c1ccc([c]4c1)-c1cccc[n+]15)[n+]1ccccc1-3 [Ir(L300)]	−5.34	−2.29	539	0.95	no decomp.	no decomp.
